Measured values taken from US4870183A, “Novel amino acid derivatives” (priority 1986, dated 1989).
Where two headings read alike, the source gives them in different places.

Assays:
[1] = biological target: T1, renin in human high renin plasma (Homo sapiens, UniProt P00797); test: Renin inhibitory effect in a human high renin plasma; format: biochemical
T1 construct: from tissue; host or cells: human high renin plasma
T1 sequence (P00797 67-406): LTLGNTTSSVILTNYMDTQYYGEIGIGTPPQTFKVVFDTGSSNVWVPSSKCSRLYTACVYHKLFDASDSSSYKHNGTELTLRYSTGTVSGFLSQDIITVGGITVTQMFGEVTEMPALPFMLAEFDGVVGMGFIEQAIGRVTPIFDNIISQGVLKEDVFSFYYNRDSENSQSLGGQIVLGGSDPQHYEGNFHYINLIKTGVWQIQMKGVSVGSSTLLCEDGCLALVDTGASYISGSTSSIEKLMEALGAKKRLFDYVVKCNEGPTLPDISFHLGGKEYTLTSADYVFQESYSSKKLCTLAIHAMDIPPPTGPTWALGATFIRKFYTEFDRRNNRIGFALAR
Method: Renin Inhibitory Effect in a Human High Renin Plasma
Two hundred μl of the mixture was placed on an ice bath, at 4° C., and remaining mixture (800 μl) was incubated for 60 minutes at 37° C. on a water bath. Two hundred μl of the incubated remaining mixture was chilled immediately on an ice bath, and the amount (A) of angiotensin I produced was determined by radioimmunoassay using renin riabead kit (DAINABOT).
The amount (B) of angiotensin I in the mixture placed on an ice bath at 4° C. was also determined by radioimmunoassay.
As a control, the same procedure as above was carried out by using 100 μl of dimethyl sulfoxide alone in place of 100 μl of dimethyl sulfoxide solution containing an amino acid compound of the present invention.
The net amount was estimated as the difference between A and B.
The inhibitory effect was calculated by the following equation. [formula]

human renin = biological target: T2, human renin (Homo sapiens, UniProt P00797); test: Inhibitory effect on human renin-sheep renin substrate reaction system in vitro; format: biochemical
T2 sequence (P00797 67-406): T1 sequence (P00797 67-406)
Method: Inhibitory effect on human renin-sheep renin substrate reaction system in vitro
The mixture was incubated for 15 minutes on a water bath at 37° C., and the reaction mixture was allowed to stand for 5 minutes on a water bath at 100° C. to stop the reaction. After cooling, 200 μl of the solution was taken up and the amount of angiotensin I produced by the addition of renin was determined by radioimmunoassay using renin riabead kit (DAINABOT).
The inhibitory effect was calculated by the following equation.
As a control, the same procedure as above was carried out by using 50 μl of dimethyl sulfoxide alone in place of the 50 μl of dimethyl sulfoxide solution containing an amino acid compound of the present invention. [formula]

[2] = human high renin plasma, pH 7.0, 37° C., 60 minutes, read-out: IC50 molar concentration
[3] = human renin-sheep renin substrate system, pH 7.4, 37° C., 15 minutes, read-out: IC50 molar concentration

Compound | IC50 [1] | IC50 (human renin) | IC50 [1, 2] | IC50 (human renin; [3])
O=C(N[C@@H](Cc1c[nH]cn1)C(=O)N[C@@H](CC1CCCCC1)C(O)C(=O)OC1CCCC1)C(Cc1ccccc1)Cc1ccccc1 (mixture of isomers) [Compound K, (2RS, 3S)-3-[N-(dibenzylacetyl)-L-histidyl]amino-4-cyclohexyl-2-hydroxybutyric acid cyclopentyl ester] | 0.28 µM | 0.018 µM | – | –
CC(C)OC(=O)C(O)[C@H](CC1CCCCC1)NC(=O)[C@H](Cc1c[nH]cn1)NC(=O)C(Cc1ccccc1)Cc1ccccc1 (mixture of isomers) [Compound E, (2RS, 3S)-3-[N-(dibenzylacetyl)-L-histidyl}amino-4-cyclohexyl-2-hydroxybutyric acid isopropyl ester] | 0.26 µM | 0.052 µM | – | –
O=C(N[C@@H](Cc1c[nH]cn1)C(=O)N[C@@H](CC1CCCCC1)C(O)C(=O)OC1CCCC1)C(Cc1ccccc1F)Cc1ccccc1F (mixture of isomers) [Compound N, (2RS, 3S)-3-{N-[Bis(2-fluorobenzyl)acetyl]-L-histidyl}amino-4-cyclohexyl-2-hydroxybutyric acid cyclopentyl ester] | 0.23 µM | 0.029 µM | – | –
CC(C)OC(=O)C(O)[C@H](CC1CCCCC1)NC(=O)[C@H](Cc1c[nH]cn1)NC(=O)C(Cc1ccccc1O)Cc1ccccc1O (stereo partly drawn) [Compound C, (2RS 3S)-3-{N-[Bis(2-hydroxybenzyl)acetyl]-L-histidyl}amino-4-cyclohexyl-2-hydroxybutyric acid isopropyl ester] | – | – | 0.4 µM | 0.18 µM
Cc1cccc(CC(Cc2cccc(C)c2)C(=O)N[C@@H](Cc2c[nH]cn2)C(=O)N[C@@H](CC2CCCCC2)C(O)C(=O)OC(C)C)c1 (mixture of isomers) [Compound Q, (2RS, 3S)-3-{N-[Bis(3-methylbenzyl)acetyl]-L-histidyl}amino-4-cyclohexyl-2-hydroxybutyric acid isopropyl ester] | 0.54 µM | 0.06 µM | – | –
CC(C)OC(=O)C(O)[C@H](CC1CCCCC1)NC(=O)[C@H](Cc1c[nH]cn1)NC(=O)C(Cc1cccc(F)c1)Cc1cccc(F)c1 (mixture of isomers) [Compound D, (2RS, 3S)-3-{N-[Bis(3-fluorobenzyl)acetyl]-L-histidyl}amino-4-cyclohexyl-2-hydroxybutyric acid isopropyl ester] | 0.25 µM | 0.018 µM | – | –
O=C(N[C@@H](Cc1cnc[nH]1)C(=O)N[C@@H](CC1CCCCC1)C(O)C(=O)OC(CF)CF)C(Cc1ccccc1)Cc1ccccc1 (stereo partly drawn) [Compound P] | 0.13 µM | 0.019 µM | – | –
CC(C)CNC(=O)C(O)[C@H](CC1CCCCC1)NC(=O)[C@H](Cc1c[nH]cn1)NC(=O)C(Cc1cccc2c1OCO2)Cc1cccc2c1OCO2 (mixture of isomers) [Compound Y, (2RS, 3S)-3-{N-[Bis(2,3-methylenedioxybenzyl)acetyl]-L-histidyl}amino-4-cyclohexyl-2-hydroxybutyric acid isobutyl amide] | 3.4 µM | 1.8 µM | – | –
CC(C)OC(=O)C(O)[C@H](CC1CCCCC1)NC(=O)[C@H](Cc1c[nH]cn1)NC(=O)C(Cc1cccc2ccccc12)Cc1cccc2ccccc12 (mixture of isomers) [Compound L, (2RS, 3S)-3-{N-[Bis(1-naphthylmethyl)acetyl]-L-histidyl}amino-4-cyclohexyl-2-hydroxybutyric acid isopropyl ester] | 0.43 µM | 0.049 µM | – | –
(2RS, 3S)-3-{N-[Bis(2-chlorobenzyl)acetyl]-L-histidyl}amino-4-cyclohexyl-2-hydroxybutyric acid butyric acid isopropyl ester [Compound U] | – | – | 0.43 µM | 0.063 µM
CC(C)OC(=O)C(O)[C@H](CC1CCCCC1)NC(=O)[C@H](Cc1c[nH]cn1)NC(=O)C(Cc1ccccc1Br)Cc1ccccc1Br (mixture of isomers) [Compound I, (2RS, 3S)-3-{N-[Bis(2-bromobenzyl)acetyl]-L-histidyl}amino-4-cyclohexyl-2-hydroxybutyric acid isopropyl ester] | 0.43 µM | 0.018 µM | – | –
Cc1ccccc1CC(Cc1ccccc1C)C(=O)N[C@@H](Cc1c[nH]cn1)C(=O)N[C@@H](CC1CCCCC1)C(O)C(=O)OC(C)C (mixture of isomers) [Compound W, (2RS, 3S)-3-{N-[Bis(2-methylbenzyl)-acetyl]-L-histidyl}amino-4-cyclohexyl-2-hydroxybutyric acid isopropyl ester] | 0.28 µM | 0.058 µM | – | –
Cc1cccc(CC(Cc2cccc(C)c2C)C(=O)N[C@@H](Cc2c[nH]cn2)C(=O)N[C@@H](CC2CCCCC2)C(O)C(=O)OC(C)C)c1C (mixture of isomers) [Compound M, (2RS, 3S)-3-{N-[Bis(2,3-dimethylbenzyl)acetyl]-L-histidyl}amino-4-cyclohexyl-2-hydroxybutyric acid isopropyl ester] | 0.86 µM | 0.077 µM | – | –
CC(C)OC(=O)C(O)[C@H](CC1CCCCC1)NC(=O)[C@H](Cc1c[nH]cn1)NC(=O)C(Cc1ccccc1C(F)(F)F)Cc1ccccc1C(F)(F)F (mixture of isomers) [Compound B, (2RS, 3S)-3-{N-[Bis(2-trifluoromethylbenzyl)acetyl]-L-histidyl}amino-4-cyclohexyl-2-hydroxybutyric acid isopropyl ester] | 1.2 µM | 0.12 µM | – | –
COc1ccccc1CC(Cc1ccccc1OC)C(=O)N[C@@H](Cc1c[nH]cn1)C(=O)N[C@@H](CC1CCCCC1)C(O)C(=O)OC(C)C (mixture of isomers) [Compound R, (2RS, 3S)-3-{N-[Bis(2-methoxybenzyl)acetyl]-L-histidyl}amino-4-cyclohexyl-2-hydroxybutyric acid isopropyl ester] | 0.36 µM | 0.17 µM | – | –
CC(C)OC(=O)C(O)[C@H](CC1CCCCC1)NC(=O)[C@H](Cc1c[nH]cn1)NC(=O)C(Cc1ccccc1C#N)Cc1ccccc1C#N (mixture of isomers) [Compound T, (2RS, 3S)-3-{N-[Bis(2-cyanobenzyl)acetyl]-L-histidyl}amino-4-cyclohexyl-2-hydroxybutyric acid isopropyl ester] | 0.28 µM | 0.19 µM | – | –
CC(C)OC(=O)C(O)[C@H](CC1CCCCC1)NC(=O)[C@H](Cc1c[nH]cn1)NC(=O)C(Cc1ccc2c(c1)OCO2)Cc1ccc2c(c1)OCO2 (mixture of isomers) [Compound V, (2RS, 3S)-3-{N-[Bis(3,4-methylenedioxybenzyl)acetyl]-L-histidyl}amino-4-cyclohexyl-2-hydroxybutyric acid isopropyl ester] | 2.6 µM | 0.91 µM | – | –
Cc1cccc(C)c1CC(Cc1c(C)cccc1C)C(=O)N[C@@H](Cc1c[nH]cn1)C(=O)N[C@@H](CC1CCCCC1)C(O)C(=O)OC(C)C (mixture of isomers) [Compound G, (2RS, 3S)-3-{N-[Bis(2,6-dimethylbenzyl)acetyl]-L-histidyl}amino-4-cyclohexyl-2-hydroxybutyric acid isopropyl ester] | 3.3 µM | 0.9 µM | – | –
CC(C)OC(=O)C(O)[C@H](CC1CCCCC1)NC(=O)[C@H](Cc1c[nH]cn1)NC(=O)C(Cc1ccc(Cl)cc1)Cc1ccc(Cl)cc1 (mixture of isomers) [Compound J, (2RS, 3S)-3-{N-[Bis(4-chlorobenzyl)acetyl]-L-histidyl}amino-4-cyclohexyl-2-hydroxybutyric acid isopropyl ester] | 5.9 µM | 0.47 µM | – | –
(2RS, 3)-3-{N-[Bis(2-fluorobenzyl)acetyl]-L-histidyl}amino-4-cyclohexyl ester [Compound S] | – | – | 0.43 µM | 0.062 µM
CC(C)OC(=O)C(O)[C@H](CC1CCCCC1)NC(=O)[C@H](Cc1c[nH]cn1)NC(=O)C(Cc1ccc(F)cc1)Cc1ccc(F)cc1 (mixture of isomers) [Compound O, (2RS, 3S)-3-{N-[Bis(4-fouorobenzyl)acetyl]-L-histidyl}amino-4-cyclohexyl-2-hydroxybutyric acid isopropyl ester] | – | – | 1.2 µM | 0.068 µM
